According to publication PMC12217109, “Development of novel benzamide class I selective lysine deacetylase inhibitors as potent anticancer agents” (Journal of Enzyme Inhibition and Medicinal Chemistry, 2025):
Read-outs that look alike come from different tables or passages of the source.

Key:
OVCAR-5 = assay: NCI-60 cytotoxicity screen; assay type: cell-based; conditions: Homo sapiens, NCI-60, 48 h, ovarian
TK-10 = assay: NCI-60 cytotoxicity screen; assay type: cell-based, human; conditions: for IC50: Homo sapiens, TK-10, NCI-60, 48 h, renal
Source text: (§1) Compounds 3–7 were submitted to the US National Cancer Institute (NIH, Bethesda, Maryland) for screening against the NCI-60 panel of human cancer cell lines, as per standard protocol.

H322M = assay: NCI-60 cytotoxicity screen; assay type: cell-based, human; conditions: for IC50: Homo sapiens, NCI-H322M, NCI-60, 48 h, NSCLC
Source text: as §1

T-47D = assay: NCI-60 cytotoxicity screen; assay type: cell-based, human; conditions: for IC50: Homo sapiens, T47D, NCI-60, 48 h, breast
PC-3 = assay: NCI-60 cytotoxicity screen; assay type: cell-based; conditions: Homo sapiens, NCI-60, 48 h, prostate
Source text: as §1

KM12 = assay: NCI-60 cytotoxicity screen; assay type: cell-based; conditions: Homo sapiens, NCI-60, 48 h, colon
Source text: as §1

COLO205 = assay: NCI-60 cytotoxicity screen; assay type: cell-based; conditions: Homo sapiens, COLO 205; NCI-60, 48 h, colon
Source text: as §1

OVCAR-4 = assay: NCI-60 cytotoxicity screen; assay type: cell-based; conditions: Homo sapiens, NCI-60, 48 h, ovarian
Source text: as §1

SF-268 = assay: NCI-60 cytotoxicity screen; assay type: cell-based; conditions: Homo sapiens, NCI-60, 48 h, CNS
Source text: as §1

SN12C = assay: NCI-60 cytotoxicity screen; assay type: cell-based; conditions: Homo sapiens, NCI-60, 48 h, renal
Source text: as §1

SK-MEL-5 = assay: NCI-60 cytotoxicity screen; assay type: cell-based; conditions: Homo sapiens, NCI-60, 48 h, melanoma
Source text: as §1

BT 549 = assay: NCI-60 cytotoxicity screen; assay type: cell-based; conditions: Homo sapiens, NCI-60, 48 h, breast
Source text: as §1

CAKI-1 = assay: NCI-60 cytotoxicity screen; assay type: cell-based; conditions: Homo sapiens, NCI-60, 48 h, renal
Source text: as §1

SF-295 = assay: NCI-60 cytotoxicity screen; assay type: cell-based; conditions: Homo sapiens, NCI-60, 48 h, CNS
Source text: as §1

H522 = assay: NCI-60 cytotoxicity screen; assay type: cell-based; conditions: Homo sapiens, NCI-60, 48 h, NSCLC
Source text: as §1

RPMI-8226 = assay: NCI-60 cytotoxicity screen; assay type: cell-based; conditions: Homo sapiens, NCI-60, 48 h, leukaemia
Source text: as §1

H23 = assay: NCI-60 cytotoxicity screen; assay type: cell-based; conditions: Homo sapiens, NCI-60, 48 h, NSCLC
Source text: as §1

SF-539 = assay: NCI-60 cytotoxicity screen; assay type: cell-based; conditions: Homo sapiens, NCI-60, 48 h, CNS
Source text: as §1

HOP-62 = assay: NCI-60 cytotoxicity screen; assay type: cell-based; conditions: Homo sapiens, NCI-60, 48 h, NSCLC
Source text: as §1

HS 578 T = assay: NCI-60 cytotoxicity screen; assay type: cell-based; conditions: Homo sapiens, NCI-60, 48 h, breast
Source text: as §1

SW620 = assay: NCI-60 cytotoxicity screen; assay type: cell-based; conditions: Homo sapiens, SW-620; NCI-60, 48 h, colon
Source text: as §1

UO-31 = assay: NCI-60 cytotoxicity screen; assay type: cell-based; conditions: Homo sapiens, NCI-60, 48 h, renal
Source text: as §1

RXF 393 = assay: NCI-60 cytotoxicity screen; assay type: cell-based; conditions: Homo sapiens, NCI-60, 48 h, renal
Source text: as §1

DU-145 = assay: NCI-60 cytotoxicity screen; assay type: cell-based; conditions: Homo sapiens, NCI-60, 48 h, prostate
Source text: as §1

OVCAR-3 = assay: NCI-60 cytotoxicity screen; assay type: cell-based; conditions: Homo sapiens, NCI-60, 48 h, ovarian
Source text: as §1

MCF-7 = assay: NCI-60 cytotoxicity screen; assay type: cell-based; conditions: Homo sapiens, MCF7; NCI-60, 48 h, breast
Source text: as §1

786-0 = assay: NCI-60 cytotoxicity screen; assay type: cell-based; conditions: Homo sapiens, NCI-60, 48 h, renal
Source text: as §1

OVCAR-8 = assay: NCI-60 cytotoxicity screen; assay type: cell-based; conditions: Homo sapiens, NCI-60, 48 h, ovarian
Source text: as §1

ACHN = assay: NCI-60 cytotoxicity screen; assay type: cell-based; conditions: Homo sapiens, NCI-60, 48 h, renal
Source text: as §1

UACC-62 = assay: NCI-60 cytotoxicity screen; assay type: cell-based; conditions: Homo sapiens, NCI-60, 48 h, melanoma
Source text: as §1

M14 = assay: NCI-60 cytotoxicity screen; assay type: cell-based; conditions: Homo sapiens, NCI-60, 48 h, melanoma
Source text: as §1

A549 = assay: NCI-60 cytotoxicity screen; assay type: cell-based; conditions: Homo sapiens, NCI-60, 48 h, NSCLC
Source text: as §1

IGROV-1 = assay: NCI-60 cytotoxicity screen; assay type: cell-based; conditions: Homo sapiens, NCI-60, 48 h, ovarian
Source text: as §1

HCT15 = assay: NCI-60 cytotoxicity screen; assay type: cell-based; conditions: Homo sapiens, HCT-15; NCI-60, 48 h, colon
Source text: as §1

SR = assay: NCI-60 cytotoxicity screen; assay type: cell-based; conditions: Homo sapiens, NCI-60, 48 h, leukaemia
Source text: as §1

HL-60 = assay: NCI-60 cytotoxicity screen; assay type: cell-based; conditions: Homo sapiens, NCI-60, 48 h, leukaemia
Source text: as §1

U251 = assay: NCI-60 cytotoxicity screen; assay type: cell-based; conditions: Homo sapiens, U-251; NCI-60, 48 h, CNS
Source text: as §1

SNB-75 = assay: NCI-60 cytotoxicity screen; assay type: cell-based; conditions: Homo sapiens, NCI-60, 48 h, CNS
Source text: as §1

EKVX = assay: NCI-60 cytotoxicity screen; assay type: cell-based; conditions: Homo sapiens, NCI-60, 48 h, NSCLC
Source text: as §1

LOX IMVI = assay: NCI-60 cytotoxicity screen; assay type: cell-based; conditions: Homo sapiens, NCI-60, 48 h, melanoma
Source text: as §1

SNB-19 = assay: NCI-60 cytotoxicity screen; assay type: cell-based; conditions: Homo sapiens, NCI-60, 48 h, CNS
Source text: as §1

SK-MEL-28 = assay: NCI-60 cytotoxicity screen; assay type: cell-based; conditions: Homo sapiens, NCI-60, 48 h, melanoma
Source text: as §1

SK-MEL-2 = assay: NCI-60 cytotoxicity screen; assay type: cell-based; conditions: Homo sapiens, NCI-60, 48 h, melanoma
Source text: as §1

HCT116 = assay: NCI-60 cytotoxicity screen; assay type: cell-based; conditions: Homo sapiens, HCT-116; NCI-60, 48 h, colon
Source text: as §1

H460 = assay: NCI-60 cytotoxicity screen; assay type: cell-based; conditions: Homo sapiens, NCI-60, 48 h, NSCLC
Source text: as §1

MDA-MB-435 = assay: NCI-60 cytotoxicity screen; assay type: cell-based; conditions: Homo sapiens, NCI-60, 48 h, melanoma
Source text: as §1

NCI/ADR-RES = assay: NCI-60 cytotoxicity screen; assay type: cell-based; conditions: Homo sapiens, NCI-60, 48 h, ovarian
Source text: as §1

[1] = test system: A2780 ovarian cancer cell line; assay: MTT cellular viability assay, A2780; assay type: cell-based; conditions: Homo sapiens
[2] = A2780, MTT, 96 h, read-out: A2780 IC50
[3] = listed as A2780* of Table 4, ovarian, values as in Tables 1 and 2 (MTT), read-out: A2780* cytotoxicity IC50

For `C=C(CN1CCN(c2ccccc2C(F)(F)F)CC1)c1ccc(C(=O)Nc2ccccc2N)cc1` [Compound 3, N-(2-aminophenyl)-4–(3-(4–(2-(trifluoromethyl)phenyl)piperazin-1-yl)prop-1-en-2-yl)benzamide], the IC50 (OVCAR-5) was 11.8 µM, the IC50 (TK-10) was 4.63 µM and the IC50 (H322M) was 11.4 µM. For the same compound, the IC50 (T-47D) was 7.67 µM, the IC50 (PC-3) was 1.91 µM and the IC50 (KM12) was 2.04 µM. The IC50 (COLO205) was 11.5 µM, the IC50 (OVCAR-4) was 6.53 µM and the IC50 (SF-268) was 4.55 µM. For the same compound, the IC50 (SN12C) was 6.43 µM, the IC50 (SK-MEL-5) was 3.01 µM and the IC50 (BT 549) was 2.67 µM. For the same compound, the IC50 (CAKI-1) was 7.96 µM, the IC50 (SF-295) was 5.97 µM and the IC50 (H522) was 1.91 µM. The IC50 (RPMI-8226) was 0.16 µM, the IC50 (H23) was 5.93 µM and the IC50 (SF-539) was 3.27 µM. The IC50 (HOP-62) was 4.76 µM, the IC50 (HS 578 T) was 12.8 µM and the IC50 (SW620) was 3.4 µM. For the same compound, the IC50 (UO-31) was 1 µM, the IC50 (RXF 393) was 1.67 µM and the IC50 (DU-145) was 7.52 µM. For the same compound, the IC50 (OVCAR-3) was 5.92 µM, the IC50 (MCF-7) was 4.48 µM and the IC50 (786-0) was 2.36 µM. The IC50 (OVCAR-8) was 3.84 µM, the IC50 (ACHN) was 7.19 µM and the IC50 (UACC-62) was 9.16 µM. For the same compound, the IC50 (M14) was 4.47 µM, the IC50 (A549) was 4.17 µM and the IC50 (IGROV-1) was 6.03 µM. For the same compound, the IC50 (HCT15) was 4.89 µM, the IC50 (SR) was 2.36 µM and the IC50 (HL-60) was 0.04 µM. The IC50 (U251) was 4.63 µM, the IC50 (SNB-75) was 2.82 µM and the IC50 (EKVX) was 6.7 µM. For the same compound, the IC50 (LOX IMVI) was 5.86 µM, the IC50 (SNB-19) was 24.4 µM and the IC50 (SK-MEL-28) was 10.3 µM. It also gave an IC50 (SK-MEL-2) of 10.3 µM, an IC50 (HCT116) of 3.09 µM and an IC50 (H460) of 5.58 µM. It also gave an IC50 (MDA-MB-435) of 2.72 µM, an IC50 (NCI/ADR-RES) of 1.87 µM and an IC50 [1, 2] of 7.5 ± 0.7 µM. The IC50 [1, 3] was 7.5 µM.
With `C=C(CN1CCN(c2cccc(C(F)(F)F)c2)CC1)c1ccc(C(=O)Nc2ccccc2N)cc1` [Compound 4, N-(2-aminophenyl)-4–(3-(4–(3-(trifluoromethyl)phenyl)piperazin-1-yl)prop-1-en-2-yl)benzamide] the IC50 (OVCAR-5) was 6.62 µM, the IC50 (TK-10) was 0.81 µM and the “fold improvement in cytotoxicity sensitivity compared to 7, TK-10” value (TK-10; TK-10 renal) was roughly 20 fold. The “fold improvement in cytotoxicity sensitivity compared to 7, H322M” value (H322M; H322M NSCLC) was “approximately 100 fold”, the IC50 (H322M) was 0.94 µM and the IC50 (T-47D) was 13.2 µM. For the same compound, the “fold less sensitive than to 1, T-47D” value (T-47D; T-47D breast cell line) was greater than 28 fold, the IC50 (PC-3) was 0.62 µM and the IC50 (KM12) was 0.49 µM. It also gave an IC50 (COLO205) of 3.45 µM, an IC50 (OVCAR-4) of 3.94 µM and an IC50 (SF-268) of 1.43 µM. It also gave an IC50 (SN12C) of 0.29 µM, an IC50 (SK-MEL-5) of 0.57 µM and an IC50 (BT 549) of 0.33 µM. The IC50 (CAKI-1) was 0.63 µM, the IC50 (SF-295) was 0.54 µM and the IC50 (H522) was 6.14 µM. For the same compound, the IC50 (RPMI-8226) was 0.32 µM, the IC50 (H23) was 3.72 µM and the IC50 (SF-539) was 0.54 µM. It also gave an IC50 (HOP-62) of 0.7 µM, an IC50 (HS 578 T) of 0.49 µM and an IC50 (SW620) of 1.28 µM. It also gave an IC50 (UO-31) of 2.39 µM, an IC50 (RXF 393) of 1.62 µM and an IC50 (DU-145) of 1.36 µM. It also gave an IC50 (OVCAR-3) of 0.55 µM, an IC50 (MCF-7) of 1.24 µM and an IC50 (786-0) of 1.1 µM. The IC50 (OVCAR-8) was 1.4 µM, the IC50 (ACHN) was 0.92 µM and the IC50 (UACC-62) was 0.41 µM. It also gave an IC50 (M14) of 1.05 µM, an IC50 (A549) of 1.48 µM and an IC50 (IGROV-1) of 14.2 µM. For the same compound, the IC50 (HCT15) was 0.48 µM, the IC50 (SR) was 0.02 µM and the IC50 (HL-60) was 0.12 µM. The IC50 (U251) was 1.17 µM, the IC50 (SNB-75) was 0.01 µM and the IC50 (EKVX) was 2.92 µM. It also gave an IC50 (LOX IMVI) of 0.12 µM, an IC50 (SNB-19) of 4.1 µM and an IC50 (SK-MEL-28) of 3.4 µM. It also gave an IC50 (SK-MEL-2) of 3.44 µM, an IC50 (HCT116) of 1.14 µM and an IC50 (H460) of 1.56 µM. It also gave an IC50 (MDA-MB-435) of 0.14 µM, an IC50 (NCI/ADR-RES) of 0.11 µM and an IC50 [1, 2] of 1.6 ± 0.5 µM. For the same compound, the IC50 [1, 3] was 1.6 µM.
